For series [1], the system named is anti-PEG antibodies (APA). Particulars: patients with chronic refractory gout; cited from earlier work.
For series [2], the system named is anti-PEG antibodies (APA). To be noted: mouse, in vivo.
Method: Adult BALB/c mice (18-22 weeks, female, Charles River) were passively immunized with APA by the intravenous administration of mouse anti-PEG IgG1 (Silver Lake Research, CH2076, lot K0868) 24 hours prior to the intravenous administration of PLD (3 mg/kg, Doxil®, Janssen Products, LP). […] Other groups received PBS 0.5 hours prior to the administration of PLD as a control. At time points of 0.083, 3, 6, 24, 48, and 96 hours following PLD administration, mice were anesthetized using ketamine (100 mg/kg, i.p.) and medetomidine hydrochloride (1 mg/kg, i.p.), then sacrificed via cardiac puncture (into sodium heparin vacutainers) and cervical dislocation. The blood, liver, spleen, and lungs were collected for doxorubicin quantification.
Briefly, blood samples were collected in sodium heparin tubes at 0.083, 3, 6, 24, 48 and 96 hours after the administration of PLD. Blood was centrifuged at 1,500 g for 5 minutes to obtain plasma. Encapsulated and released doxorubicin in plasma were separated using solid phase separation. Tissues of interest were flash frozen in liquid nitrogen and stored at −80° C. until processing. Upon processing, tissues were thawed, weighed, and diluted in a 1:3 ratio with phosphate buffered saline prior to homogenizing with a Precellys 24 bead mill homogenizer (Omni International Inc, Kennesaw, GA). Samples were further processed by addition of 800 μL extraction solution (acetonitrile with 100 ng/mL daunorubicin internal standard) to 200 μL of plasma or tissue homogenate. The samples were vortexed for 10 minutes and centrifuged at 10,000 g for 10 minutes at 4° C. […] The samples were then vortexed, transferred to autosampler vials, and analyzed by high-performance liquid chromatography with fluorescence detection (HPLC-FL) set to excitation wavelength 490 nm/emission wavelength 590 nm. […] Samples that returned a concentration above the quantitative limit were diluted to fall within the quantitative range and reinjected.

The values that follow come from patent publication US11813333B2, “Use of high molecular weight polyethylene glycol compositions to restore the efficacy of pegylated therapeutic compositions” (THE UNIVERSITY OF NORTH CAROLINA AT CHAPEL HILL, priority 2017, dated 2023).

For the substance pegloticase, the “fraction of patients that developed APA leading to rapid clearance of the enzyme from the blood” value in series [1] is on record as “roughly one-third”.
Consider polyethylene glycol [PEG 10 kDa], for which, in series [2], the “time by which the vast majority of the PLD is found in the liver (delayed hepatic accumulation)” value worked out at 3 h.
Regarding polyethylene glycol [PEG 20 kDa], the “time by which the vast majority of the PLD is found in the liver (delayed hepatic accumulation)” value in series [2] is 24 h.
The same measure, in the same setting: in the case of polyethylene glycol [PEG 40 kDa] it was 96 h.
